Assays:
Type in all cases: binding
Settings in all cases: 10 μM TEAD protein, 50 μM test compound
[1] = system: recombinant TEAD1 protein (194-411, Uniprot ID: P28347); test: Thermal shift assay (protein melting point curve), TEAD1; parameters: key to the marks not given beside the values
Protocol: (§1) The ability of the compounds to increase the melting point of purified recombinant TEAD1/2/3/4 proteins is tested using a thermal shift assay. The strength of the compound's binding to the protein and the selectivity of the compound's binding to the four TEAD subtypes are evaluated by calculating the melting point shift ΔTm−° C. […] Based on the Δ Tm value, the ability of the compound to bind to the TEAD protein is divided into four levels: ++++, +++, ++, +.
(§2) Test method of protein melting point curve: 10 μL of the protein melting point curve experimental system (10 μM TEAD protein, 50 μM test compound, SYPRO® orange (55692, sigma)) is prepared in a 384-well fluorescence quantitative PCR plate according to the following system, and reacted at 4° C. in the dark for 20 minutes. On-machine reaction: ABI QuantStudio Dx fluorescence quantitative PCR instrument; program: from 25° C. to 80° C., increasing the temperature at a rate of 0.05° C./s, and reading the fluorescence channel signal of the corresponding wavelength of SYPRO® orange every second.

[2] = target: recombinant TEAD3 protein (218-435, Uniprot ID: Q99594) (Homo sapiens (Human), UniProt Q99594); test: Thermal shift assay (protein melting point curve), TEAD3
Protocol: as §1, §2

[3] = target: recombinant TEAD4 protein (217-434, Uniprot ID: Q15561) (Homo sapiens (Human), UniProt Q15561); test: Thermal shift assay (protein melting point curve), TEAD4
Protocol: as §1, §2

[4] = target: recombinant TEAD2 protein (218-447, Uniprot ID: Q15562) (Homo sapiens (Human), UniProt Q15562); test: Thermal shift assay (protein melting point curve), TEAD2
Protocol: as §1, §2

Sequence of recombinant TEAD4 protein (217-434, Uniprot ID: Q15561) (Q15561 217-434): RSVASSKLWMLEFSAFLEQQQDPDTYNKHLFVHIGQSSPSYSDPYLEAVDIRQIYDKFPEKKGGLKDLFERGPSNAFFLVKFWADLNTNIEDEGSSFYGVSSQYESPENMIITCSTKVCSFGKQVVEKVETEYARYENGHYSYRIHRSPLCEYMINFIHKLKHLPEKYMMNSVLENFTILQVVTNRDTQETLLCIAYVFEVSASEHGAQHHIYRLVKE
Sequence of recombinant TEAD3 protein (218-435, Uniprot ID: Q99594) (Q99594 218-435): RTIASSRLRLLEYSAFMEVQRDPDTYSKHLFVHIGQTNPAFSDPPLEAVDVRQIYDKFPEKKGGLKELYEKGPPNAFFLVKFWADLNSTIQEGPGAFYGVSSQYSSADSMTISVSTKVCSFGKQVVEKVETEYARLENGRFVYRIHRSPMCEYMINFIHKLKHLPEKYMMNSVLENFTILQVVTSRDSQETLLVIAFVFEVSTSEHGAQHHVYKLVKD
Sequence of recombinant TEAD2 protein (218-447, Uniprot ID: Q15562) (Q15562 218-447): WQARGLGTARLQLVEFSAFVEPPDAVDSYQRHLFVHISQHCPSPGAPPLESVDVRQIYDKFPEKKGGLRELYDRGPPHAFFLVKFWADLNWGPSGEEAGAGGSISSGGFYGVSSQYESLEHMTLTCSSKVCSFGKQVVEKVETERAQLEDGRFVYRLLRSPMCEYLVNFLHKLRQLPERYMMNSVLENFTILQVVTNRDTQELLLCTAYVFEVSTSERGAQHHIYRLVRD

Row | SMILES | Δ T m (TEAD3) [2] | Δ T m (TEAD4) [3] | Δ T m (TEAD2) [4] | Δ T m (TEAD1) [1]
1 | Cc1nnc(-c2cc(P(C)(C)=O)ccc2NCc2ccc(C(F)(F)F)cc2)o1 [Compound 4] | ++ | + | ++ | +++
2 | CP(C)(=O)c1ccc(Nc2ccc(C(F)(F)F)cc2)c(-c2nnc(CO)o2)c1 [Compound 11] | + | ++ | ++ | +++
3 | CP(C)(=O)c1ccc(Nc2cccc(C(F)(F)F)c2)c(-c2nccc(OC3COC3)n2)c1 [Compound 13] | + | + | + | +++
4 | CP(C)(=O)c1ccc(Nc2ccc(C(F)(F)F)cc2)c(-c2nnc(NCCO)o2)c1 [Compound 12] | + | + | + | ++
5 | CP(C)(=O)c1cnc(Nc2ccc(C(F)(F)F)cc2)c(-c2nccc(OC3COC3)n2)c1 [Compound 39] | + | ++ | + | ++++
6 | CP(C)(=O)c1ccc(Nc2ccc(C(F)(F)F)cc2)c(-n2cc(C3CCOCC3)cn2)c1 [Compound 33] | + | ++ | + | ++
7 | CP(C)(=O)c1ccc(Nc2ccc(C(F)(F)F)cc2)c(-c2ncn3ccccc23)c1 [Compound 40] | ++ | ++ | ++ | ++
8 | CP(C)(=O)c1ccc(Nc2ccc(C(F)(F)F)cc2)c(-c2ncn(C3CCOCC3)n2)c1 [Compound 34] | + | ++ | + | ++
9 | CP(C)(=O)c1ccc(Nc2ccc(C(F)(F)F)cc2)c(-c2nccc(OCCO)n2)c1 [Compound 19] | ++ | + | ++ | ++
10 | Cc1nc(-c2cc(P(C)(C)=O)ccc2NCc2ccc(C(F)(F)F)cc2)no1 [Compound 5] | ++ | ++++ | +++ | ++++
11 | CP(C)(=O)c1ccc(Nc2ccc(C(F)(F)F)cc2)c(-c2cnn(CC3COC3)c2)c1 [Compound 16] | ++ | +++ | ++ | +++
12 | CP(C)(=O)c1ccc(Nc2ccc(Br)cc2)c(-c2nccc(OC3COC3)n2)c1 [Compound 26] | + | ++++ | ++ | ++++
13 | CP(C)(=O)c1ccc(NC23CC(C(F)(F)F)(C2)C3)c(-c2nccc(OC3COC3)n2)c1 [Compound 37] | ++ | ++ | ++ | ++
14 | CP(C)(=O)c1ccc(Nc2ccc(C(F)(F)F)cc2)c(-c2nnn(Cc3ccccn3)n2)c1 [Compound 3] | + | ++ | + | +++
15 | CP(C)(=O)c1ccc(Nc2ccc(C(F)(F)F)cc2)c(-c2cn(Cc3ccccn3)cn2)c1 [Compound 2] | ++ | ++ | + | +++
16 | CP(C)(=O)c1ccc(NC23CCC(CC2)CC3)c(-c2nccc(OC3COC3)n2)c1 [Compound 38] | + | +++ | + | +++
17 | CP(C)(=O)c1ccc(OCc2ccc(C(F)(F)F)cc2)c(-c2nccc(OC3COC3)n2)c1 [Compound 20] | ++ | ++ | ++ | +++
18 | CP(C)(=O)c1ccc(Nc2ccc(C(F)(F)F)cc2)c(-c2ccn(C3CCOCC3)n2)c1 [Compound 25] | ++ | ++ | ++ | ++

The next lines start with results.

Row | Δ T m (TEAD3) [2] | Δ T m (TEAD4) [3] | Δ T m (TEAD2) [4] | SMILES | Δ T m (TEAD1) [1]
19 | + | ++ | + | O=P1(c2ccc(Nc3ccc(C(F)(F)F)cc3)c(-c3nccc(OC4COC4)n3)c2)CCNCC1 [Compound 60] | +++
20 | ++ | ++ | + | CP(C)(=O)c1ccc(NCc2ccc(C(F)(F)F)cc2)c(-c2cn(C3COC3)cn2)c1 [Compound 47] | +++
21 | + | +++ | ++ | CP(C)(=O)c1ccc(Nc2cccc(OC(F)(F)F)c2)c(-c2nccc(OC3COC3)n2)c1 [Compound 67] | +++
22 | + | + | + | COCc1cccn(-c2cc(P(C)(C)=O)ccc2Nc2ccc(C(F)(F)F)cc2)c1=O [Compound 48] | ++
23 | + | ++ | ++ | CP(C)(=O)c1ccc(Nc2ccc(C(F)(F)F)cc2)c(-c2cn(C3COC3)cn2)c1 [Compound 70] | ++
24 | + | + | + | CP(C)(=O)c1ccc(NCc2ccc(C(F)(F)F)cc2)c(-n2cc(C3CCOCC3)cn2)c1 [Compound 58] | ++
25 | + | ++ | + | CP(C)(=O)c1ccc(NCc2ccc(C(F)(F)F)cc2)c(-c2ncn(C3CCOCC3)n2)c1 [Compound 55] | ++
26 | + | + | + | CP(C)(=O)c1ccc(Nc2ccc(C(F)(F)F)cc2)c(-c2nnc(COC3COC3)o2)c1 [Compound 57] | ++
27 | ++ | ++ | + | Cc1nnc(-c2cc(P(C)(C)=O)ccc2Nc2ccc(C(F)(F)F)cc2)o1 [Compound 69] | ++
28 | ++ | +++ | +++ | CP(C)(=O)c1ccc(Nc2ccc(C(F)(F)F)cc2)c(-c2cn(C3COC3)nn2)c1 [Compound 41] | +++
29 | + | ++ | + | CP(C)(=O)c1ccc(NCc2ccc(C(F)(F)F)cc2)c(-c2nccc(N3CCC(O)C3)n2)c1 (stereo not drawn) [Compound 54] | ++
30 | + | + | + | COCc1cccn(-c2cc(P(C)(C)=O)ccc2NCc2ccc(C(F)(F)F)cc2)c1=O [Compound 59] | ++
31 | + | ++ | ++ | CP(C)(=O)c1ccc(NCc2cc(F)cc(F)c2)c(-c2ncccn2)c1 [Compound 44] | ++
32 | ++ | ++ | + | Cc1nc(-c2cc(P(C)(C)=O)ccc2NCc2cccc(C(F)(F)F)c2)no1 [Compound 49] | +++
33 | + | ++ | ++ | CP(C)(=O)c1ccc(NCc2cccc(C(F)(F)F)c2)c(-c2nccc(OC3COC3)n2)c1 [Compound 52] | ++

— patent US20260055126A1, “SMALL MOLECULE COMPOUNDS WITH PHOSPHORYLATED ARYL STRUCTURES AND USE THEREOF” (HANGZHOU PHECDAMED CO., LTD., priority 2022, published 2026)
